Target: human OX2R (Homo sapiens (Human), UniProt O43614)
Assay: IPOne (IP-One, Cisbio) orexin receptor agonist assay in CHO cells expressing human OX2R
Conditions: not given

Chain of human OX2R (O43614 whole entry): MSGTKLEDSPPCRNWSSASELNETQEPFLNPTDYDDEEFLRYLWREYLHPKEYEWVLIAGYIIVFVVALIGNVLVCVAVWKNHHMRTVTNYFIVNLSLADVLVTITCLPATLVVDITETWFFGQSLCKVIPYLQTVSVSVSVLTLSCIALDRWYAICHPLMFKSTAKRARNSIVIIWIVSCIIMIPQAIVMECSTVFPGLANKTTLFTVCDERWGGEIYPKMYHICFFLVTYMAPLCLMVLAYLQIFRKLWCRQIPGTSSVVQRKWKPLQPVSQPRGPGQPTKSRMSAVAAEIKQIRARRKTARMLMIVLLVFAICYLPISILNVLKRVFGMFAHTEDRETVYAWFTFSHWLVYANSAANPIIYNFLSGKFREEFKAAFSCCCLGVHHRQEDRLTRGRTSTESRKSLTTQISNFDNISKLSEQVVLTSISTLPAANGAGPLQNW

Point of comparison: `CCNC(=O)N1[C@H](C)C[C@H](NS(C)(=O)=O)[C@@H]1COC1CCC(C(C)C)CC1` (stereo partly drawn) [Example 1, (2R,3S,5R)—N-ethyl-2-(((4-isopropylcyclohexyl)oxy)methyl)-5-methyl-3-(methylsulfonamido)-pyrrolidine-1-carboxamide], IC50 15.2 nM. Against it:
- CCC1(CC)C[C@@H](NS(C)(=O)=O)[C@@H](CO[C@H]2CC[C@@H](c3ccccc3)CC2)N1C(=O)OC (relative stereo) [Example 42, methyl (CIS)-2,2-diethyl-4-(methylsulfonamido)-5-((((CIS)-4-phenylcyclohexyl)oxy)methyl)-pyrrolidine-1-carboxylate] — 21-fold higher, 316 nM

Same assay, conditions: CHO, hOX2R_IP; percentage of mean max effect of a reference compound at 1 uM (100% activity vs Orexin A)

Point of comparison: `CCNC(=O)N1[C@H](C)C[C@H](NS(C)(=O)=O)[C@@H]1COC1CCC(C(C)C)CC1` (stereo partly drawn) [Example 1, (2R,3S,5R)—N-ethyl-2-(((4-isopropylcyclohexyl)oxy)methyl)-5-methyl-3-(methylsulfonamido)-pyrrolidine-1-carboxamide], Emax 101%. Against it:
- COC(=O)N1[C@H](C)C[C@H](NS(=O)(=O)N(C)C)[C@@H]1CO[C@H]1CC[C@@H](c2ccccc2F)CC1 [Example 23, methyl (2R,3S,5R)-3-((N,N-dimethylsulfamoyl)amino)-2-((((1s,4S)-4-(2-fluorophenyl)cyclohexyl)oxy)methyl-5-methylpyrrolidine-1-carboxylate] — lower, 97%
- CC[C@@H]1C[C@H](NS(C)(=O)=O)[C@H](CO[C@H]2CC[C@@H](c3ccccc3)CC2)N1C(=O)OC (racemic) [Example 43, methyl (2R,3S,5R)-5-ethyl-3-(methylsulfonamido)-2-((((CIS)-4-phenylcyclohexyl)oxy)methyl)-pyrrolidine-1-carboxylate] — higher, 103%
- CC(C)C1CCC(OC[C@H]2[C@@H](NS(=O)(=O)N(C)C)C[C@@H](C)N2C(=O)OCC(F)F)CC1 (stereo partly drawn) [Example 14, 2,2-difluoroethyl (2R,3S,5R)-3-((N,N-dimethylsulfamoyl)amino)-2-(((4-isopropylcyclohexyl)oxy)meth-yl)-5-methylpyrrolidine-1-carboxylate] — lower, 100%
- CCNC(=O)N1[C@H](C)C[C@H](NS(C)(=O)=O)[C@@H]1COC1CCC(C(F)(F)F)CC1 (stereo partly drawn) [Example 2, (2R,3S,5R)—N-ethyl-5-methyl-3-(methylsulfonamido)-2-(((4-(trifluoromethyl)-cyclohexyl)oxy)methyl)pyrrolidine-1-carboxamide] — lower, 100%
- CCc1ccccc1[C@H]1CC[C@@H](OC[C@H]2[C@@H](NS(=O)(=O)N(C)C)C[C@@H](C)N2C(=O)OC)CC1 [Example 65, Methyl (2R,3S,5R)-3-((N,N-dimethylsulfamoyl)amino)-2-((((1s,4S)-4-(2-ethylphenyl)cyclohexyl)oxy)methyl)-5-methylpyrrolidine-1-carboxylate] — the same, 101%
- CC(C)C1CCC(OC[C@H]2[C@@H](NS(C)(=O)=O)C[C@@H](C)N2C(=O)OCCF)CC1 (stereo partly drawn) [Example 10, 2-fluoroethyl (2R,3S,5R)-2-(((4-isopropylcyclohexyl)oxy)meth-yl)-5-methyl-3-(methylsulfonamido)pyrrolidine-1-carboxylate] — lower, 99%
- CCC1(CC)C[C@@H](NS(C)(=O)=O)[C@@H](CO[C@H]2CC[C@@H](c3ccccc3)CC2)N1C(=O)OC (relative stereo) [Example 42, methyl (CIS)-2,2-diethyl-4-(methylsulfonamido)-5-((((CIS)-4-phenylcyclohexyl)oxy)methyl)-pyrrolidine-1-carboxylate] — lower, 100%
- CCc1ccccc1[C@H]1CC[C@H](OC[C@H]2[C@@H](NS(=O)(=O)N(C)C)C[C@@H](C)N2C(=O)OC)CC1 [Example 66, methyl (2R,3S,5R)-3-((N,N-dimethylsulfamoyl)amino)-2-((((1r,4R)-4-(2-ethylphenyl)cyclohexyl)oxy)methyl)-5-methylpyrrolidine-1-carboxylate] — lower, 100%

Same assay, conditions: hOX2R_IP; percentage of mean max effect of a reference compound at 1 uM (100% activity vs Orexin A)

Point of comparison: `COC(=O)N1[C@H](C)C[C@H](NS(C)(=O)=O)[C@@H]1CO[C@H]1CC[C@@H](c2ccccc2)CC1` [Example 15, methyl (2R,3S,5R)-5-methyl-3-(methylsulfonamido)-2-((((1s,4S)-4-phenylcyclohexyl)oxy)-methyl)pyrrolidine-1-carboxylate], “Emax (%)” value 101%. Against it:
- COC(=O)N1[C@H](C)C[C@H](NS(=O)(=O)N(C)CC2CS(=O)(=O)C2)[C@@H]1CO[C@H]1CC[C@@H](c2cccc(F)c2)CC1 [Example 58, methyl (2R,3S,5R)-3-((N-((1,1-dioxidothietan-3-yl)methyl)-N-methylsulfamoyl)amino)-2-((((1s,4S)-4-(3-fluorophenyl)cyclohex-yl)oxy)methyl)-5-methylpyrrolidine-1-carboxylate] — the same, 101%
- CNS(=O)(=O)N[C@H]1C[C@@H](C)N(C(=O)OC(C)C)[C@H]1COC1CCC(C(C)C)CC1 (stereo partly drawn) [Example 6, isopropyl (2R,3S,5R)-2-(((4-isopropylcyclohexyl)oxy)meth-yl)-5-methyl-3-((N-methylsulfamoyl)amino) pyrrolidine-1-carboxylate] — lower, 100%
- COC(=O)N1C(CO)CC(NS(C)(=O)=O)C1CO[C@H]1CC[C@@H](c2ccccc2)CC1 (stereo partly drawn) [Example 50, methyl (CIS)-5-(hydroxymethyl)-3-(methylsulfonamido)-2-((((CIS)-4-phenylcyclohexyl)oxy)-methyl)pyrrolidine-1-carboxylate] — the same, 101%
- COC(=O)N1[C@H](C)C[C@H](NS(=O)(=O)N(C)C)[C@@H]1CO[C@H]1CC[C@@H](c2ccc(C#N)c(C)c2)CC1 [Example 63, Methyl (2R,3S,5R)-2-((((1s,4S)-4-(4-cyano-3-methylphenyl)cyclohexyl)oxy)methyl)-3-((N,N-dimethylsulfamoyl)amino)-5-methylpyrrolidine-1-carboxylate] — lower, 100%
- COC(=O)N1[C@H](C)C[C@H](NS(C)(=O)=O)[C@@H]1CO[C@H]1CC[C@@H](c2cc(F)cc(F)c2)CC1 [Example 71, Methyl (2R,3S,5R)-2-((((1s,4S)-4-(3,5-difluorophenyl)cyclohexyl)oxy)methyl)-5-methyl-3-(methylsulfonamido)pyrrolidine-1-carboxylate] — higher, 102%
- COC(=O)N1[C@H](C)C[C@H](NS(=O)(=O)N(C)CC#N)[C@@H]1CO[C@H]1CC[C@@H](c2cccc(F)c2)CC1 [Example 53, Methyl (2R,3S,5R)-3-((N-(cyanomethyl)-N-methylsulfamoyl)amino)-2-((((1s,4S)-4-(3-fluorophenyl)cyclohexyl)oxy)methyl)-5-methylpyrrolidine-1-carboxylate] — higher, 102%
- COC(=O)N1C(CCO)CC(NS(C)(=O)=O)C1CO[C@H]1CC[C@@H](c2ccccc2)CC1 (stereo partly drawn) [Example 49, methyl (CIS)-5-(2-hydroxyethyl)-3-(methylsulfonamido)-2-((((CIS)-4-phenylcyclohexyl)oxy)methyl)pyrrolidine-1-carboxylate] — higher, 102%
- CNS(=O)(=O)N[C@H]1C[C@@H](C)N(C(=O)OCC(F)F)[C@H]1COC1CCC(C(C)C)CC1 (stereo partly drawn) [Example 13, 2,2-difluoroethyl (2R,3S,5R)-2-(((4-isopropylcyclohexyl)oxy)meth-yl)-5-methyl-3-((N-methylsulfamoyl)amino)pyrro-lidine-1-carboxylate] — the same, 101%
- COC(=O)N1[C@H](C)C[C@H](NS(=O)(=O)N(C)CCC#N)[C@@H]1CO[C@H]1CC[C@@H](c2cccc(F)c2)CC1 [Example 54, methyl (2R,3S,5R)-3-((N-(2-cyanoethyl)-N-methylsulfamoyl)amino)-2-((((1s,4S)-4-(3-fluorophenyl)cyclohex-yl)oxy)methyl)-5-methylpyrrolidine-1-carboxylate] — lower, 98%

— patent US11098029B2, “5-alkyl pyrrolidine orexin receptor agonists” (Merck Sharp & Dohme Corp., priority 2019, dated 2021)
